{
  "source": "patent US7722858B2",
  "about": "“Prevention and treatment of atherosclerosis by reducing carbamylation of LDL or the effects of carbamylated LDL” (Board of Trustees of the University of Arkansas, priority 2001, dated 2010)",
  "key": {"lens protein": {"system": "lens protein", "conditions": "cited from earlier work"}, "carbamylation of LDL": {"system": "carbamylation of LDL", "test": "In vitro inhibition of LDL carbamylation by potassium cyanate", "assay_type": "biochemical, human", "conditions": "molar ratios of 1:1 to 16:1 (L-lysine:KOCN)", "protocol": "CLDL (cLDL) was produced by chemical modification of nLDL. Native LDL was incubated under sterile conditions with potassium cyanate (Aldrich; Milwaukee, Wis.) (20 mg KOCN/mg nLDL) at 35° C. for 4 hours. Salt was removed by excessive dialysis against 0.15 M NaCl, 0.01% EDTA, pH 7.0 at 4° C. for 48 hours under sterile conditions. To obtain cLDL carbamylated to different degrees, various incubation periods, from 5 to 300 min, were used.\nAssessment of carbamylation was made (a) on the basis of relative electrophoretic mobility in agarose gel, and (b) by the homocitrulline assay as described by Trepanier et al.. Briefly, 25 μg of LDL protein in PBS, pH 7.4 (50 μl volume) was incubated with 2 μg proteinase K and 1% SDS (v:v) at 37° C. for 2 hours. Then 250 μl of urea-nitrogen reagent (0.83 M sulfuric acid, 1.13 M orthophosphoric acid, 0.55 mM thiosemicarbazide, 2.6 mM cadmium sulfate), 50 μl 3% diacetyl monoxime in water was added and the mixture was incubated at 97° C. for 30 min. Samples were transferred into a 96-well plate and absorption of chromogen(s) was recorded at 530 nm. Homocitrulline (carbamyl lysine) standard curves (0-30 nmol) were generated using serial dilutions of a stock solution (200 μM) in PBS, pH 7.4. Results are expressed as nmol homocitrulline/mg LDL protein)."}, "HCAECs": {"system": "HCAECs", "test": "Flow cytometry of LDL-treated cells double-labeled with BrdU and 7-AAD", "assay_type": "cell-based, human", "protocol": "Flow cytometry of LDL-treated cells double-labeled with BrdU and 7-AAD (marker of total DNA) was performed to detect whether BrdU incorporation is linked to DNA synthesis or DNA repair, and whether mitosis is suppressed, and thus accumulation of polyploid cells is associated with the increase of BrdU incorporation."}, "rat lens": {"system": "rat lens", "conditions": "rat lens incubated in cyanate; cited from earlier work"}},
  "note": "Entries after “also recorded” stand apart in the source; their conditions may differ.",
  "data": [
    {"smiles": "O=C(O)COc1nn(Cc2ccccc2)c2ccccc12", "note": "[Bendazac]", "values": [
      {"measurement": "carbamylation of lens protein", "setting": "lens protein; present with cyanate", "result": "inhibits the carbamylation of lens protein"}
    ]},
    {"smiles": "N=C(N)NCCC[C@H](N)C(=O)O", "note": "[L-arginine]", "values": [
      {"measurement": "inhibition of carbamylation of LDL in vitro", "setting": "carbamylation of LDL", "result": "can inhibit carbamylation of LDL in vitro"}
    ]},
    {"smiles": "NCC(=O)O", "note": "[L-glycine]", "values": [
      {"measurement": "inhibition of carbamylation of LDL in vitro", "setting": "carbamylation of LDL", "result": "can inhibit carbamylation of LDL in vitro"}
    ]},
    {"smiles": "NCCCC[C@H](N)C(=O)O", "note": "[L-lysine]", "values": [
      {"measurement": "inhibition of carbamylation of LDL in vitro", "setting": "carbamylation of LDL", "result": "can inhibit carbamylation of LDL in vitro; also recorded: inhibition of LDL carbamylation"}
    ]},
    {"smiles": "N#C[O-].[K+]", "note": "[Potassium cyanate, potassium cyanate]", "values": [
      {"measurement": "induction of proliferation or DNA synthesis", "setting": "HCAECs", "result": "did not induce proliferation or DNA synthesis"}
    ]},
    {"smiles": "CC(=O)Oc1ccccc1C(=O)O", "note": "[aspirin]", "values": [
      {"measurement": "cyanate-induced increase in phase separation temperature", "setting": "rat lens", "result": "aspirin-preventable increase in phase separation temperature"}
    ]},
    {"smiles": "CC(C)Cc1ccc(C(C)C(=O)O)cc1", "note": "(stereo not shown) [ibuprofen]", "values": [
      {"measurement": "binding of cyanate to lens protein", "setting": "lens protein", "result": "dose-dependent decrease"}
    ]}
  ]
}
